Data taken from US8940739B2, “Compound of a reverse-turn mimetic and a production method and use therefor” (JW Pharmaceutical Corporation, priority 2010, dated 2015).

Experiments:
[1] = system: MV-4-11 (human, Acute Myeloid Leukemia cell line) cells; experiment: Cell growth inhibition assay, GI50 of MV-4-11; type: cell-based; conditions: Homo sapiens, MV4-11, 72 h, MV-4-11 cells
Outline: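 GI50 derived from 490 nm absorbance using CellTiter 96 Aqueous One reagent, with compound-free medium providing the background. Human AML MV-4-11 cells, seeded at 5×10^4 per well in IMDM/10% FBS, incubated 72 h at 37 °C with duplicate serial dilutions of test compound.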

[2] = target: cDNA-expressed human hepatic CYP3A4 (Homo sapiens (Human), UniProt P08684); experiment: Measurement of CYP (IC50 of P450 CYP3A4), BFC substrate; type: in vitro ADME; conditions: 20 minutes
Experimental: The compounds of the present invention had lower P450 CYP3A4 inhibitory activity (higher IC50). Lower CYP3A4 inhibitory activity means that the compounds of the present invention cause fewer side-effects from the pharmacological point of view.
This assay was performed in a 200 l volume in 96-well microtiter plates using cDNA-expressed human hepatic CYP3A4 (supersome, BD Gentest™ #456202). As a substrate for CYP3A4, 7-benzyloxy-4-trifluoromethyl-coumarin (BFC) was used. The compounds of Examples 1 to 5 and the substrate BFC were dissolved in 100% acetonitrile. The final volume of acetonitrile of the incubation mixture was less than 1% (volume/volume). A potassium phosphate buffer (pH 7.4, final concentration 0.1M), MgCl2 (final concentration 8.3 mM), EDTA (final concentration 1.67 mM), an inventive compound stock solution, CYP3A4 supersome, and NADPH (final concentration 0.25 mM) were added to each well. The reaction was initiated by adding the substrate (BFC, final concentration 30 µM) at 37. The incubation was performed for 20 minutes and then the reaction was terminated by the addition of 75 μl of acetonitrile: 0.5 M tris-base=4:1 (volume/volume).
Then, a fluorescent signal was measured using a fluorometer. A BFC metabolite, 7-hydroxy-4-trifluoromethyl-coumarin, was measured using an excitation wavelength of 409 nm and an emission wavelength of 530 nm.

cDNA-expressed human hepatic CYP3A4, sequence (P08684 whole entry): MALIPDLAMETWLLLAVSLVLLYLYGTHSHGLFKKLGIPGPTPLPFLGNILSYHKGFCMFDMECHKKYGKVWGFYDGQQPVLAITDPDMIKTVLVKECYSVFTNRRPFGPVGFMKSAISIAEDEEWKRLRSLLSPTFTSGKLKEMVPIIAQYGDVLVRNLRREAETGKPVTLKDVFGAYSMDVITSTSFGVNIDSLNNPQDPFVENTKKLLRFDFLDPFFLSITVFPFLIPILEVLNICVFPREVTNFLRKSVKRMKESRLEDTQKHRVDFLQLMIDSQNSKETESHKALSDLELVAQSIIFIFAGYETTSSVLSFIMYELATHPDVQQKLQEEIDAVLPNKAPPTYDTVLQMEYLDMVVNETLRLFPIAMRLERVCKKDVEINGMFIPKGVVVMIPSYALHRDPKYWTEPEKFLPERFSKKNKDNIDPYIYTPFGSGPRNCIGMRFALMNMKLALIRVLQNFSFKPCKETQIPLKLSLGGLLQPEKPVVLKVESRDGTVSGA

| GI50 [1] [nM] | IC50 [2] [nM] | Structure (SMILES) |
| --- | --- | --- |
| 1.4 | 2380 | C=CCN1CC(=O)N2C(Cc3ccc(O)cc3)C(=O)N(Cc3cccc4c(C(=O)Nc5ccc(NCC(C)(C)C)nc5)cn(C)c34)CC2N1C(=O)NCc1ccccc1 (centres unmarked) [Compound G-22] |
| 1.9 | 3860 | C=CCN1CC(=O)N2[C@@H](Cc3ccc(O)cc3)C(=O)N(Cc3cccc4c(C(=O)N5CCC(C(=O)OCC)CC5)cn(C)c34)C[C@@H]2N1C(=O)NCc1ccccc1 [Compound E-53] |
| 15.1 | 2010 | C=CCN1CC(=O)N2[C@@H](Cc3ccc(O)cc3)C(=O)N(Cc3cccc4c(C(=O)NCCCCOC)cn(C)c34)C[C@@H]2N1C(=O)NCc1ccccc1 [Compound F-10] |
| 2.2 | 10000 | C=CCN1CC(=O)N2C(CN(Cc3cccc4c(-c5ccc(S(C)(=O)=O)cc5)cn(C)c34)C(=O)[C@@H]2Cc2ccc(O)cc2)N1C(=O)NCc1ccccc1 (some centres unmarked) [Compound H-3] |
| 11.9 | 3840 | C=CCN1CC(=O)N2[C@@H](Cc3ccc(O)cc3)C(=O)N(Cc3cccc4c(C(=O)NCCCOC)cn(C)c34)C[C@@H]2N1C(=O)NCc1ccccc1 [Compound F-6] |
| 11.3 | 2730 | C=CCN1CC(=O)N2C(CN(Cc3cccc4c(C(=O)Nc5ccc(N6CCNCC6)nc5)cn(C)c34)C(=O)[C@@H]2Cc2ccc(O)cc2)N1C(=O)NCc1ccccc1 (some centres unmarked) [Compound G-39] |
| 1.3 | 6040 | C=CCN1CC(=O)N2C(Cc3ccc(O)cc3)C(=O)N(Cc3cccc4c(C(=O)Nc5ccc(N6CCN(CCO)CC6)nc5)cn(C)c34)CC2N1C(=O)NCc1ccccc1 (centres unmarked) [Compound G-44] |
| 1.3 | 6940 | C=CCN1CC(=O)N2C(Cc3ccc(O)cc3)C(=O)N(Cc3cccc4c(C(=O)Nc5ccc(N6CCN(C7CC7)CC6)nc5)cn(C)c34)CC2N1C(=O)NCc1ccccc1 (centres unmarked) [Compound G-49] |
| 1.3 | 5730 | C=CCN1CC(=O)N2C(CN(Cc3cccc4c(C(=O)Nc5ccc(N6CCN(CC)CC6)nc5)cn(C)c34)C(=O)[C@@H]2Cc2ccc(O)cc2)N1C(=O)NCc1ccccc1 (some centres unmarked) [Compound G-42] |
| 2 | 2530 | C=CCN1CC(=O)N2C(Cc3ccc(O)cc3)C(=O)N(Cc3cccc4c(C(=O)Nc5ccc(NCCN6CCCCC6)nc5)cn(C)c34)CC2N1C(=O)NCc1ccccc1 (centres unmarked) [Compound G-27] |
| 19.3 | 11800 | C=CCN1CC(=O)N2[C@@H](Cc3ccc(O)cc3)C(=O)N(Cc3cccc4c(C(=O)N5CC(N6CCC(OC)CC6)C5)cn(C)c34)C[C@@H]2N1C(=O)NCc1ccccc1 [Compound E-73] |
| 1.3 | 6320 | C=CCN1CC(=O)N2[C@@H](Cc3ccc(O)cc3)C(=O)N(Cc3cccc4c(C(=O)Nc5ccc(N6CCC(N7CCN(C)CC7)CC6)nc5)cn(C)c34)C[C@@H]2N1C(=O)NCc1ccccc1 [Compound G-57] |
| 17 | 10500 | C=CCN1CC(=O)N2[C@@H](Cc3ccc(O)cc3)C(=O)N(Cc3cccc4c(-c5ccc(NC(=O)NCCc6ccccc6)cc5)cn(C)c34)C[C@@H]2N1C(=O)NCc1ccccc1 [Compound D-75] |
| 1.5 | 2560 | C=CCN1CC(=O)N2[C@@H](Cc3ccc(O)cc3)C(=O)N(Cc3cccc4c(C(=O)Nc5ccc(N6CC(N7CCC(OC)CC7)C6)nc5)cn(C)c34)C[C@@H]2N1C(=O)NCc1ccccc1 [Compound G-63] |
| 15.8 | 9480 | C=CCN1CC(=O)N2[C@@H](Cc3ccc(O)cc3)C(=O)N(Cc3cccc4c(-c5ccc(NC(=O)Nc6ccc(OC)cc6)cc5)cn(C)c34)C[C@@H]2N1C(=O)NCc1ccccc1 [Compound D-76] |
| 19.8 | 2860 | C=CCN1CC(=O)N2[C@@H](Cc3ccc(O)cc3)C(=O)N(Cc3cccc4c(C(=O)N(C)CCN5CCOCC5)cn(C)c34)C[C@@H]2N1C(=O)NCc1ccccc1 [Compound F-26] |
| 1.3 | 11200 | C=CCN1CC(=O)N2[C@@H](Cc3ccc(O)cc3)C(=O)N(Cc3cccc4c(C(=O)Nc5ccc(N6CCCN(C)CC6)nc5)cn(C)c34)C[C@@H]2N1C(=O)NCc1ccccc1 [Compound G-67] |
| 1.3 | 2370 | C=CCN1CC(=O)N2C(Cc3ccc(O)cc3)C(=O)N(Cc3cccc4c(C(=O)Nc5ccc(N6CCC(N7CCCCC7)CC6)nc5)cn(C)c34)CC2N1C(=O)NCc1ccccc1 (centres unmarked) [Compound G-55] |
| 1.8 | 7620 | C=CCN1CC(=O)N2[C@@H](Cc3ccc(O)cc3)C(=O)N(Cc3cccc4c(C(=O)Nc5ccc(OCCOC)nc5)cn(C)c34)C[C@@H]2N1C(=O)NCc1ccccc1 [Compound G-11] |
| 2.5 | 9650 | C=CCN1CC(=O)N2[C@@H](Cc3ccc(O)cc3)C(=O)N(Cc3cccc4c(C(=O)NC5CCN(C(=O)c6ccc(N7CCN(C)CC7)cc6)CC5)cn(C)c34)C[C@@H]2N1C(=O)NCc1ccccc1 [Compound F-67] |

| GI50 [1] [nM] | IC50 [2] [nM] | Structure (SMILES) |
| --- | --- | --- |
| 1.8 | 3980 | C=CCN1CC(=O)N2[C@@H](Cc3ccc(O)cc3)C(=O)N(Cc3cccc4c(C(=O)N5CCN6CCN(CC(C)C)CC6C5)cn(C)c34)C[C@@H]2N1C(=O)NCc1ccccc1 (some centres unmarked) [Compound E-45] |
| 5.4 | > 25000 | C=CCN1CC(=O)N2[C@@H](Cc3ccc(O)cc3)C(=O)N(Cc3cccc4c(-c5ccc(NC(=O)c6ccc(N(C)C)cc6)cc5)cn(C)c34)C[C@@H]2N1C(=O)NCc1ccccc1 [Compound D-51] |
| 1.3 | > 25000 | C=CCN1CC(=O)N2C(Cc3ccc(O)cc3)C(=O)N(Cc3cccc4c(C(=O)Nc5ccc(N6CCN(C(C)=O)CC6)nc5)cn(C)c34)CC2N1C(=O)NCc1ccccc1 (centres unmarked) [Compound G-53] |
| – | > 25000 | C=CCN1CC(=O)N2[C@@H](Cc3ccc(O)cc3)C(=O)N(Cc3cccc4c(-c5ccc(C(=O)Nc6ccc(OCCCC)cc6)cc5)cn(C)c34)C[C@@H]2N1C(=O)NCc1ccccc1 [Compound D-23] |
| – | 2970 | C=CCN1CC(=O)N2[C@@H](Cc3ccc(O)cc3)C(=O)N(Cc3cccc4c(C(=O)Nc5ccc(F)nc5)cn(C)c34)C[C@@H]2N1C(=O)NCc1ccccc1 [Compound G-1] |
| – | 18300 | C=CCN1CC(=O)N2[C@@H](Cc3ccc(O)cc3)C(=O)N(Cc3cccc4c(C(=O)N5CC(O)C5)cn(C)c34)C[C@@H]2N1C(=O)NCc1ccccc1 [Compound E-70] |
| – | 5040 | C=CCN1CC(=O)N2[C@@H](Cc3ccc(O)cc3)C(=O)N(Cc3cccc4c(C(=O)N(C)CC(=O)N5CCN(C)CC5)cn(C)c34)C[C@@H]2N1C(=O)NCc1ccccc1 [Compound F-32] |
| – | 5800 | C=CCN1CC(=O)N2C(CN(Cc3cccc4c(C(=O)Nc5ccc(NCCN6CCC(O)CC6)nc5)cn(C)c34)C(=O)[C@@H]2Cc2ccc(O)cc2)N1C(=O)NCc1ccccc1 (some centres unmarked) [Compound G-29] |
| – | 3630 | C=CCN1CC(=O)N2[C@@H](Cc3ccc(O)cc3)C(=O)N(Cc3cccc4c(C(=O)N5CCCN(C)CC5)cn(C)c34)C[C@@H]2N1C(=O)NCc1ccccc1 [Compound E-42] |
| – | 11200 | C=CCN1CC(=O)N2[C@@H](Cc3ccc(O)cc3)C(=O)N(Cc3cccc4c(C(=O)N5CCN(S(C)(=O)=O)CC5)cn(C)c34)C[C@@H]2N1C(=O)NCc1ccccc1 [Compound E-15] |
| – | 2480 | C=CCN1CC(=O)N2[C@@H](Cc3ccc(O)cc3)C(=O)N(Cc3cccc4c(C(=O)N(C)CCn5ccnc5C)cn(C)c34)C[C@@H]2N1C(=O)NCc1ccccc1 [Compound F-36] |
| – | 2550 | C=CCN1CC(=O)N2C(CN(Cc3cccc4c(C(=O)Nc5ccc(NCC(O)CO)nc5)cn(C)c34)C(=O)[C@@H]2Cc2ccc(O)cc2)N1C(=O)NCc1ccccc1 (some centres unmarked) [Compound G-21] |
| – | 6150 | C=CCN1CC(=O)N2[C@@H](Cc3ccc(O)cc3)C(=O)N(Cc3cccc4c(C(=O)NNCC(=O)OCC)cn(C)c34)C[C@@H]2N1C(=O)NCc1ccccc1 [Compound F-55] |
| – | 6870 | C=CCN1CC(=O)N2[C@@H](Cc3ccc(O)cc3)C(=O)N(Cc3cccc4c(C(=O)NC5CCN(C(=O)CCO)CC5)cn(C)c34)C[C@@H]2N1C(=O)NCc1ccccc1 [Compound F-65] |
| – | 2450 | C=CCN1CC(=O)N2[C@@H](Cc3ccc(O)cc3)C(=O)N(Cc3cccc4c(C(=O)N5CC6CCN(C)C6C5)cn(C)c34)C[C@@H]2N1C(=O)NCc1ccccc1 (some centres unmarked) [Compound E-68] |
| – | 2130 | C=CCN1CC(=O)N2[C@@H](Cc3ccc(O)cc3)C(=O)N(Cc3cccc4c(-c5cccc(C(=O)Nc6ccccc6)c5)cn(C)c34)C[C@@H]2N1C(=O)NCc1ccccc1 [Compound D-14] |
| – | 2480 | C=CCN1CC(=O)N2[C@@H](Cc3ccc(O)cc3)C(=O)N(Cc3cccc4c(C(=O)NN5CCN(c6ccccn6)CC5)cn(C)c34)C[C@@H]2N1C(=O)NCc1ccccc1 [Compound E-38] |
| – | 4530 | C=CCN1CC(=O)N2C(CN(Cc3cccc4c(C(=O)Nc5ccc(NCCN(CC)CC)nc5)cn(C)c34)C(=O)[C@@H]2Cc2ccc(O)cc2)N1C(=O)NCc1ccccc1 (some centres unmarked) [Compound G-24] |
| – | 15000 | C=CCN1CC(=O)N2[C@@H](Cc3ccc(O)cc3)C(=O)N(Cc3cccc4c(C(=O)N5CCN6CCN(C(C)=O)CC6C5)cn(C)c34)C[C@@H]2N1C(=O)NCc1ccccc1 (some centres unmarked) [Compound E-44] |
